# Source: patent publication USRE40086E1, “Method for treating bacterial infection with novel 7-substituted-9-substituted amino 6-demethyl-6-deoxytetracyclines” (Wyeth Holdings Corporation, priority 1991, dated 2008)
# Experiments:
# [1] = tested on: Bacteroides fragilis; test: MIC vs recent clinical and agricultural isolates (Table V, KK); assay type: cell-based; conditions: [11] tested
# [2] = tested on: Pasturella multocida (Agricultural & Clinical); test: as above; assay type: cell-based; conditions: [17] tested
# [3] = tested on: E. faecalis ATCC 29212; test: MIC, agar dilution; assay type: cell-based; conditions: E. faecalis ATCC 29212; Table IA; unit assumed
# [4] = tested on: Staphylococcus aureus, methicillin-resistant; test: MIC vs recent clinical and agricultural isolates (Table V, KK); assay type: cell-based; conditions: [15] tested
# [5] = tested on: Streptococcus agalactiae; test: as above; assay type: cell-based; conditions: [10] tested
# [6] = tested on: Shigella spp.; assay type: cell-based; conditions: [14] tested
# [7] = tested on: S. haemolyticus AVAH 88-3; test: MIC, agar dilution; assay type: cell-based; conditions: S. hemolyticus AVHAH 88-3; Table IA; unit assumed
# [8] = tested on: E. coli UBMS 90-4 (tetM); test: MIC, agar dilution; assay type: cell-based; conditions: E. coli UBMS 90-4 TetM; Table IA; unit assumed
# [9] = tested on: E. coli ATCC 25922; test: MIC, agar dilution; assay type: cell-based; conditions: E. coli ATCC 25922; Table IA; unit assumed
# [10] = tested on: Citrobacter freundii; test: MIC vs recent clinical and agricultural isolates (Table V, KK); assay type: cell-based; conditions: [10] tested
# [11] = tested on: Enterobacter aerogenes; test: as above; assay type: cell-based; conditions: [10] tested
# [12] = tested on: Kiebsiella pneumoniae; test: as above; assay type: cell-based; conditions: [10] tested
# [13] = tested on: S. aureus UBMS 88-4 (Sensitive); test: MIC, agar dilution; assay type: cell-based; conditions: S. aureus UBMS 88-4; Table IA; unit assumed
# [14] = tested on: E. faecalis 12201; test: MIC, agar dilution; assay type: cell-based; conditions: Enterococcus 12201; Table IA; unit assumed
# [15] = tested on: Streptococcus pneumoniae; test: MIC vs recent clinical and agricultural isolates (Table V, KK); assay type: cell-based; conditions: [10] tested
# [16] = tested on: Klebsiella oxytoca; test: as above; assay type: cell-based; conditions: [10] tested
# [17] = tested on: Neisseria gonorrhoeae; test: as above; assay type: cell-based; conditions: [14] tested
# [18] = tested on: S. aureus UBMS 90-1 (tetM); test: MIC, agar dilution; assay type: cell-based; conditions: S. aureus UBMS 90-1 TetM; Table IA; unit assumed
# [19] = tested on: Xanthomonas maltophilia; test: MIC vs recent clinical and agricultural isolates (Table V, KK); assay type: cell-based; conditions: [10] tested
# [20] = tested on: Morganella morganii; test: as above; assay type: cell-based; conditions: [16] tested
# [21] = tested on: Bacteroides spp.; test: as above; assay type: cell-based; conditions: [9] tested
# [22] = tested on: Enterococcus faecalis; test: as above; assay type: cell-based; conditions: [10] tested
# [23] = tested on: Serratia mercescens; test: as above; assay type: cell-based; conditions: [10] tested
# [24] = tested on: S. aureus UBMS 88-5 (tetM); test: MIC, agar dilution; assay type: cell-based; conditions: S. aureus UBMS 88-5 TetM; Table IA; unit assumed
# [25] = tested on: Bordetella bronchiseptica (Agricultural); test: MIC vs recent clinical and agricultural isolates (Table V, KK); assay type: cell-based; conditions: [10] tested
# [26] = tested on: Clostridium difficile; test: as above; assay type: cell-based; conditions: [12] tested
# [27] = tested on: Pseudomonas aeruginosa; test: as above; assay type: cell-based; conditions: [10] tested
# [28] = tested on: Anaerobic Gram (+) Cocci; test: as above; assay type: cell-based; conditions: [15] tested
# [29] = tested on: Moraxella catarrhalis; test: as above; assay type: cell-based; conditions: [18] tested
# [30] = tested on: Enterococcus spp. Vancomycin-resistant; test: as above; assay type: cell-based; conditions: [8] tested
# [31] = tested on: S. aureus UBMS 88-7 (tetK); test: MIC, agar dilution; assay type: cell-based; conditions: S. aureus UBMS 88-7 TetK; Table IA; unit assumed
# [32] = tested on: Listeria monocytogenes; test: MIC vs recent clinical and agricultural isolates (Table V, KK); assay type: cell-based; conditions: [8] tested
# [33] = tested on: Citrobacter diversus; test: as above; assay type: cell-based; conditions: [10] tested
# [34] = tested on: Staphylococcus aureus, methicillin-susceptible; test: as above; assay type: cell-based; conditions: [15] tested
# [35] = tested on: Proteus vulgaris; test: as above; assay type: cell-based; conditions: [18] tested
# [36] = tested on: Proteus mirabilis; test: as above; assay type: cell-based; conditions: [26] tested
# [37] = tested on: Escherichia coli UBMS 90-4 (Tet-M); test: In vivo antibacterial evaluation, acute lethal infection in mice; conditions: mice, Escherichia coli UBMS 90-4 (Tet-M), Intraveneous
# [38] = tested on: Escherichia coli (Clinical); test: MIC vs recent clinical and agricultural isolates (Table V, KK); assay type: cell-based; conditions: [30] tested
# [39] = tested on: S. aureus UBMS 90-2 (tetM); test: MIC, agar dilution; assay type: cell-based; conditions: S. aureus UBMS 90-2 TetM; Table IA; unit assumed
# [40] = tested on: S. aureus UBMS 90-3 (Sensitive); test: MIC, agar dilution; assay type: cell-based; conditions: S. aureus UBMS 90-3; Table IA; unit assumed
# [41] = tested on: S. aureus ATCC 29213 (Sensitive); test: MIC, agar dilution; assay type: cell-based; conditions: S. aureus ATCC 29213; Table IA
# [42] = tested on: Escherichia coli (Agricultural); test: MIC vs recent clinical and agricultural isolates (Table V, KK); assay type: cell-based; conditions: [15] tested
# [43] = tested on: E. coli UBMS 89-1 (tetM); test: MIC, agar dilution; assay type: cell-based; conditions: E. coli UBMS 89-1 TetM; Table IA; unit assumed
# [44] = tested on: E. coli UBMS 88-1 (tetB); test: MIC, agar dilution; assay type: cell-based; conditions: E. coli UBMS 88-1 TetB; Table IA; unit assumed
# [45] = tested on: Bacertoides fragilis group; test: MIC vs recent clinical and agricultural isolates (Table V, KK); assay type: cell-based; conditions: [10] tested
smiles,measurement,setting,value
"CN(C)CC(=O)Nc1cc(N(C)C)c2c(c1O)C(=O)C1=C(O)[C@]3(O)C(=O)C(C(N)=O)=C(O)[C@@H](N(C)C)C3CC1C2.Cl.Cl (stereo partly drawn) [KK, [4S-(4alpha,12aalpha)]-4,7-Bis(dimethylamino)-9-[[(dimethylamino)acetyl]amino]-1,4,4a,5,5a,6,11,12a-octahydro-3,10,12,12a-tetrahydroxy-1,11-dioxo-2-naphthacenecarboxamide dihydrochloride]",MIC (range over isolates),[1],0.06 to 0.2 µg/mL
same,MIC (range over isolates),[2],0.03 to 0.25 µg/mL
same,Antibacterial activity (MIC),[3],0.06 µg/mL
same,MIC (range over isolates),[4],0.12 to 2 µg/mL
same,MIC (range over isolates),[5],0.06 to 0.25 µg/mL
same,MIC (range over isolates),[6],0.06 to 0.5 µg/mL
same,Antibacterial activity (MIC),[7],0.12 µg/mL
same,Antibacterial activity (MIC),[8],0.25 µg/mL
same,Antibacterial activity (MIC),[9],0.25 µg/mL
same,MIC (range over isolates),[10],0.25 to 8 µg/mL
same,MIC (range over isolates),[11],0.5 to 1 µg/mL
same,MIC (range over isolates),[12],0.25 to 8 µg/mL
same,Antibacterial activity (MIC),[13],0.12 µg/mL
same,Antibacterial activity (MIC),[14],0.12 µg/mL
same,MIC (range over isolates),[15],0.03 to 0.25 µg/mL
same,MIC (range over isolates),[16],0.5 to 1 µg/mL
same,MIC (range over isolates),[17],0.25 to 1 µg/mL
same,Antibacterial activity (MIC),[18],0.25 µg/mL
same,MIC (range over isolates),[19],0.5 to 2 µg/mL
same,MIC (range over isolates),[20],0.5 to 4 µg/mL
same,MIC (range over isolates),[21],0.03 to 1 µg/mL
same,MIC (range over isolates),[22],0.015 to 0.12 µg/mL
same,MIC (range over isolates),[23],2 to 8 µg/mL
same,Antibacterial activity (MIC),[24],0.25 µg/mL
same,MIC (range over isolates),[25],0.12 µg/mL
same,MIC (range over isolates),[26],0.03 µg/mL
same,MIC (range over isolates),[27],1 to 16 µg/mL
same,MIC (range over isolates),[28],0.015 to 0.06 µg/mL
same,MIC (range over isolates),[29],0.06 to 0.12 µg/mL
same,MIC (range over isolates),[30],0.015 to 0.06 µg/mL
same,Antibacterial activity (MIC),[31],0.25 µg/mL
same,MIC (range over isolates),[32],0.06 to 0.12 µg/mL
same,MIC (range over isolates),[33],0.25 to 1 µg/mL
same,MIC (range over isolates),[34],0.12 to 0.25 µg/mL
same,MIC (range over isolates),[35],0.5 to 4 µg/mL
same,MIC (range over isolates),[36],1 to 32 µg/mL
same,ED50,[37],2.49 mg/kg
same,MIC (range over isolates),[38],0.12 to 4 µg/mL
same,Antibacterial activity (MIC),[39],0.12 µg/mL
same,Antibacterial activity (MIC),[40],0.03 µg/mL
same,Antibacterial activity (MIC),[41],≦0.015
same,MIC (range over isolates),[42],0.12 to 4 µg/mL
same,Antibacterial activity (MIC),[43],0.12 µg/mL
same,Antibacterial activity (MIC),[44],0.25 µg/mL
same,MIC (range over isolates),[45],0.06 to 2 µg/mL
